Results reported in PMC3103436 (Journal of Translational Medicine, 2011).

Legend:
[1] = system: HLMs; experiment: Chemical inhibition assays of BBR metabolism in HLMs; format: in vitro ADME, human; details: BBR 15 μM, inhibitor 5 μM, 30 min, control without inhibitor = 100%
Method: (§1) The incubation was performed in duplicates.
The incubations were performed in duplicates.
(§2) The flow-rate was 0.2 ml/min. […] The MS was operated in positive ESI mode. […] Data were analyzed by Xcalibur 1.2 software.

[2] = ref [34]; cited from earlier work
[3] = system: InsR mRNA; experiment: InsR mRNA real-time RT-PCR in HepG2 cells; format: cell-based, human; details: HepG2, 20 μM, 8 hrs, fold of untreated control
Method: (§3) The Human hepatoma cell line HepG2 was obtained from the American Tissue Culture Collection (ATCC, USA). HepG2 cells were grown in Eagle's Minimum Essential Medium (GIBCO) supplemented with 10% fetal bovine serum (GIBCO), 1% non-essential amino acids (GIBCO) and 1% antibiotics (100 units/ml of penicillin and 100 μg/ml of streptomycin), and incubated at 37°C in a humidified atmosphere with 5% CO2.
(§4) The study compounds were diluted in culture medium prior to use.
(§5) Total cellular RNAs were isolated by the Ultraspec RNA lysis solution (Biotecxs Laboratory, Houston, TX) by following the vender's instruction. Total RNAs were reversely transcribed into cDNAs using the Reverse Transcription System (Promega, Madison, WI). Quantitative real time PCR was performed with these cDNAs as described previously, with β-Actin as an internal control. Normalized InsR or LDLR mRNA expression levels were plotted as fold of the untreated control. The primers used were described previously.

[4] = target: T1, CYP2C9 (Homo sapiens, UniProt P11712); experiment: BBR metabolism in recombinant human CYP450 isoenzyme; format: in vitro ADME; details: BBR 20 μM, 50 pmol/ml rCYP450, 30 min
T1 construct: purchased BD Gentest; host or cells: baculovirus-insect cells
Method: The experiment was performed with the condition described in the method using HLMs for transformation. […] Control microsome prepared from insect cells, which were infected with wild-type baculovirus, severed as a negative control. The incubation was performed in duplicates.
Sample analysis was performed using an LC-MS/MS system (Thermo-Finnigan, San Jose, CA, USA), which consisted of a Surveyor LC pump with an on-line degasser, a Surveyor autosampler and a TSQ Quantum triple-quadrupole mass spectrometer equipped with an ESI probe. A Waters XTerra® MS C18 (2.1 ×50 mm, 3.5 μm) column (Milford, MA, USA) was used for separation at 25°C. The mobile phase consisted of 0.2% acetic acid in water (A) and 100% acetonitrile (B). The flow-rate was 0.2 ml/min. […] The column was allowed to equilibrate for 10 min after each run. Only the data from 2 min to 15 min was acquired by MS. The MS was operated in positive ESI mode. Nitrogen was used as both the sheath and auxiliary gas at a pressure of 35 and 10 arbitrary units, respectively. The spray voltage was set at 4.0 kV and the capillary temperature was at 270°C. […] The most abundant product ion of each chemical was chosen for selected reaction monitoring (SRM). Data were analyzed by Xcalibur 1.2 software.

[5] = oral administration, cited from earlier work
[6] = system: LDLR mRNA; experiment: LDLR mRNA real-time RT-PCR in HepG2 cells; format: cell-based, human; details: HepG2, 40 μM, 8 hrs
Method: as §3, §4, §5

[7] = system: LDLR; experiment: Double immune-staining and flow cytometry, cell-surface protein expression in HepG2; format: cell-based, human; details: HepG2, 8 hrs; BBR 27 μM, simvastatin 1 μM, rosiglitazone 10 μM
Method: (§6) The Human hepatoma cell line HepG2 was obtained from the American Tissue Culture Collection (ATCC, USA). […] The study compounds were diluted in culture medium prior to use. […] The corresponding isotype-matched, nonspecific mouse and rabbit IgGs were used respectively as controls for nonspecific staining. After washing in PBS, cells were stained with a fluorescein isothiocyanate (FITC)-conjugated goat anti-mouse IgG (green color, Santa Cruz Biotechnology), as well as a tetramethyl rhodamine isothiocyanate (TRITC)-conjugated goat anti-rabbit IgG (red color, Santa Cruz Biotechnology). The fluorescence intensities were analyzed in a FACS (FACSort, Becton Dickinson).

[8] = system: InsR; experiment: as above; format: cell-based, human; details: HepG2, 8 hrs; BBR 27 μM, simvastatin 1 μM, rosiglitazone 10 μM
Method: as §6

[9] = system: AMPK; experiment: AMPK-alpha phosphorylation immunoblot in HepG2 cells; format: cell-based, human; details: HepG2, 20 μM, 24 hrs
Method: as §3, §4
Sample cells were rinsed with phosphate-buffered saline and lysed in SDS-PAGE loading buffer. Cell lysates were subjected to 8% SDS-PAGE for protein separation, and protein bands were transferred onto polyvinylidene difluoride membranes (Millipore). The amount of protein and extent of phosphorylation were estimated using the following primary rabbit antibodies, anti-phospho-AMPK-α-Thr-172 antibody, anti-AMPK-α antibody as well as anti-β-actin antibody (Cell signaling Technology, USA). The secondary antibody was peroxidase-conjugated goat anti-rabbit antibody (Cell signaling Technology, USA).

[10] = system: rCYP450 isoenzymes; experiment: Detection of BBR metabolites after incubation with rCYP450 isoenzymes; format: in vitro ADME, human; details: cell-free reaction, LC-MS/MS
Method: as §1, §2

[11] = BBR metabolites in rat liver after oral BBR, LC-MS/MS; format: in vivo, Male Wistar rats; details: 3 hrs after BBR oral administration 200 mg/kg; for Detection of metabolite in rat liver: LC-MS/MS; for Relative level of metabolite in rat liver: among M1-M4
Method: Male Wistar rats (200-240 g, 8-week-old) purchased from Vital River Laboratories (Beijing, China) fasted overnight and were free access to water before drug administration. […] 2 g of the liver sample was washed with 5 mL normal saline, cut into small pieces and extracted with 3-fold volume acetonitrile. After vortexed for 3 min, the extract was centrifuged at 16000 g for 15 min at 4°C and the supernatant was diluted with 0.2% acetic acid. Ten microlitre dilution aliquot was injected into the LC-MS/MS system for analysis.
as §2

[12] = system: human liver microsomes; experiment: BBR metabolism in human liver microsomes (HLMs); format: in vitro ADME; details: cell-free reaction, LC-MS/MS
Method: Incubation conditions were optimized to ensure the linearity with respect to the microsomal protein concentration and incubation time. […] After incubation of the mixture in a 37°C water bath with opening to the air, the reaction lasted for 30 min and was terminated by addition of 800 μl cold acetonitrile. Internal standard (40 μg/ml ampicillin, dissolved in acetonitrile) was added into the mixture, and then centrifuged at 16000 g for 15 min at 4°C. The supernatant was aspirated, followed by dilution in 0.2% acetic acid. 10 μl of the aliquot was injected into the LC-MS/MS system for analysis. Control samples were incubated without NADPH. The incubation was performed in duplicates.
as §2

T1 sequence (P11712 whole entry): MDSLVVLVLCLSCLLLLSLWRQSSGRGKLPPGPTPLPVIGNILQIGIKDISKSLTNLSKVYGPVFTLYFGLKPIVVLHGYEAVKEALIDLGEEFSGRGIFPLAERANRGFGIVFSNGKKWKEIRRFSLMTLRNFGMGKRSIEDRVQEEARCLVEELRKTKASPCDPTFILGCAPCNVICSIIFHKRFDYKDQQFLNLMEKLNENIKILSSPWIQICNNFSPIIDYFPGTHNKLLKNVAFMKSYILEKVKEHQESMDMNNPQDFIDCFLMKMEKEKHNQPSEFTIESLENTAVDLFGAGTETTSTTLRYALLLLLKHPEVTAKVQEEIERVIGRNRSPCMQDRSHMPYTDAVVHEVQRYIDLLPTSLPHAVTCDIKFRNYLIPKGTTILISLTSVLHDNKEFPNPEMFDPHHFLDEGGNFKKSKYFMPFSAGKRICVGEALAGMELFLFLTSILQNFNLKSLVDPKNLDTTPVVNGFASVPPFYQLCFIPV

| SMILES | Effect on LDLR mRNA expression [6] | Effect on cell-surface LDLR protein expression [7] | Effect on cell-surface InsR protein expression [8] | AMPK activation (AMPK-alpha phosphorylation) [9] | Detection of metabolite after incubating BBR with rCYP450s [10] | Detection of metabolite in rat liver [11] | Detection of metabolite after incubating BBR with HLMs [12] | further results |
| --- | --- | --- | --- | --- | --- | --- | --- | --- |
| O=c1cc(-c2ccccc2)oc2c1ccc1ccccc12 [ANF, α-naphthoflavone] |  |  |  |  |  |  |  | Decrease of M2 formation [1]: about 40% |
| COc1ccc2cc3[n+](cc2c1OC)CCc1cc2c(cc1-3)OCO2 [BBR, Berberine] | strongest up-regulator | up-regulatory effect | up-regulatory effect | most active compound |  |  |  | Share of BBR entering into blood stream (absorption in human gut) [2]: less than 10%; Increase of InsR mRNA level [3]: over 2 folds; Transformation of BBR into metabolites by CYP2C9 [4]: very weak effect; Reduction of blood cholesterol, triglyceride and glucose ([5]; patients with hyperlipidemia and type 2 diabetes, ref [2],[3],[5]-[7]): significant reduction; Side-effects on liver, kidney and muscle ([5]; patients, ref [2],[5]): no side-effects |
| CC(=O)N1CCN(c2ccc(OCC3COC(Cn4ccnc4)(c4ccc(Cl)cc4Cl)O3)cc2)CC1 (stereo not drawn) [KET, ketoconazole] |  |  |  |  |  |  |  | Decrease of M2 formation [1]: not |
| COc1ccc2cc3[n+](cc2c1O)CCc1cc2c(cc1-3)OCO2 [M1, berberrubine] | remained to be active |  |  | increased the activity of AMPK but with a less potency | not detectable | detectable | not found | Relative level of metabolite in rat liver [11]: lowest; LDLR mRNA up-regulating activity as percent of that of BBR [6]: 35% |
| COc1c(O)ccc2cc3[n+](cc12)CCc1cc2c(cc1-3)OCO2 [M2, thalifendine] | remained to be active |  |  | increased the activity of AMPK but with a less potency | detectable | detectable | detectable | Relative level of metabolite in rat liver [11]: highest level; LDLR mRNA up-regulating activity as percent of that of BBR [6]: 26% |
| COc1ccc2cc3[n+](cc2c1OC)CCc1cc(O)c(O)cc1-3 [M3, demethyleneberberine] | without effect |  |  | not significant | detectable | detectable | detectable |  |
| COc1cc2c(cc1O)CC[n+]1cc3c(OC)c(OC)ccc3cc1-2 [M4, jatrorrhizine] | without effect |  |  | not significant | not detectable | detectable | not found |  |
| CN(CCOc1ccc(CC2SC(=O)NC2=O)cc1)c1ccccn1 (stereo not drawn) [rosiglitazone] |  | effect on neither LDLR nor InsR | effect on neither LDLR nor InsR |  |  |  |  |  |
| CCC(C)(C)C(=O)O[C@H]1C[C@@H](C)C=C2C=C[C@H](C)[C@H](CC[C@@H]3C[C@@H](O)CC(=O)O3)[C@H]21 [simvastatin] |  | increased LDLR expression only | not InsR |  |  |  |  |  |
